Values quoted from earlier work in patent US20250213469A1, “DOSAGE FORMS OF ACTIVE […] AGAINST VIRAL DISEASES IN DRY POWDER INHALER DEVICE FOR SYMPTOMS CAUSED BY COVID-19 AND OTHER VIRAL LUNG DISEASES” ([…] EGITIM D[…].S., priority 2022, published 2025).

Conditions: C3H/HeN mice, positron emission tomography; literature study of Bocan et al.

SMILES: NC(=O)c1nc(F)c[nH]c1=O [[^18F] Favipiravir]
- tissue retention (biodistribution) of the active substance: retained lowest in the lungs and the most in the kidney, liver and stomach
